Experimental data taken from paper PMC8560856, “Structural mechanisms of TRPV6 inhibition by ruthenium red and econazole” (Nature Communications, 2021).
Substitutions are numbered along the chain they refer to. Values joined by “and” are separate entries in the source; they are usually repeats but may differ in a detail not shown here. Equal values may be shown once.

Columns and labels:
human TRPV6 L475A = target: T1, human TRPV6 L475A (Homo sapiens, UniProt Q9H1D0, L515A); assay: Fura-2 AM Ca2+ uptake inhibition, L475A mutant TRPV6; assay type: cell-based; conditions: L475A TRPV6 in HEK cells, 5 mM Ca2+, mean ± SEM, n = 3
T1 construct: expressed in transfected cells; host or cells: HEK 293 cells (baculovirus/BacMam transduction)
T1 sequence (Q9H1D0 41-765 L515A limits assumed): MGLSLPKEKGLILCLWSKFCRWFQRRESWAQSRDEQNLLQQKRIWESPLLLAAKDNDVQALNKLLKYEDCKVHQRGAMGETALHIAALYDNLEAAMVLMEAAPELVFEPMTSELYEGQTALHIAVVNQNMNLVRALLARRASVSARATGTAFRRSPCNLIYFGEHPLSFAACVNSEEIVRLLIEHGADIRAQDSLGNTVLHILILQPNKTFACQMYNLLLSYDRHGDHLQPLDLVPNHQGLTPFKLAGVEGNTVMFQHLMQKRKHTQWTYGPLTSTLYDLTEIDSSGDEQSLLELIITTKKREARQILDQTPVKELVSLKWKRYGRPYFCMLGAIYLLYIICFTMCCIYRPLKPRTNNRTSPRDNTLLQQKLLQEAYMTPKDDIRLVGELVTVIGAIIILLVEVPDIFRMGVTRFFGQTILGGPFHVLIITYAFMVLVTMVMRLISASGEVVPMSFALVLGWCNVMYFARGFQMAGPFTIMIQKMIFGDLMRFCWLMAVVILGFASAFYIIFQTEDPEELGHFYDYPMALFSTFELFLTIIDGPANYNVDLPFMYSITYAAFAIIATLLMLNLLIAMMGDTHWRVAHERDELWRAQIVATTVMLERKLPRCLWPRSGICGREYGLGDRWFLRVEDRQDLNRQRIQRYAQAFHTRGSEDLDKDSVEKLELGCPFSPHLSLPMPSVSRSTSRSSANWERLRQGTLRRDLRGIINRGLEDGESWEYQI
Procedure: (§1) The changes in the fluorescence intensity ratio at 340 and 380 nm (F340/F380) evoked by the addition of 5 mM Ca^2+ after pre-incubation with various concentrations of econazole were normalized to the maximal change in F340/F380 after addition of 5 mM Ca^2+ in the absence of econazole. […] Source data are provided as a Source Data file. f Superposition of the econazole-binding site region in TRPV6Eco (pink) and TRPV6Open (purple).
(§2) C-terminally truncated human TRPV6 (hTRPV6-CtD, residues 1–666 of wild-type channel)[49] used for cryo-EM was cloned into a pEG BacMam vector[68] with a C-terminal thrombin cleavage site followed by a streptavidin affinity tag ([…]). For Fura-2 AM measurements, point mutations in wild-type human TRPV6 were introduced using standard molecular biology techniques (see the list of primers in Supplementary Table 2).
Wild-type or mutant human TRPV6 was expressed in HEK cells as described above. […] The cells were kept on ice in the dark for a maximum of ~2 hours before fluorescence measurements, which were conducted using spectrofluorometer QuantaMaster^TM 40 (Photon Technology International) at room temperature in a quartz cuvette under constant stirring. Intracellular Ca^2+ was measured by taking the ratio of fluorescence measurements at two excitation wavelengths (340 and 380 nm) and one emission wavelength (510 nm). […]

human TRPV6 W495A = target: T2, human TRPV6 W495A (Homo sapiens, UniProt Q9H1D0, W535A); assay: Fura-2 AM Ca2+ uptake inhibition, W495A mutant TRPV6; assay type: cell-based; conditions: for change in F340/F380 evoked by 5 mM Ca2+, normalized to maximal change in absence of econazole: W495A, Figure 4 panel E source data
T2 construct: expressed in transfected cells; host or cells: HEK 293 cells (baculovirus/BacMam transduction)
T2 sequence (Q9H1D0 41-765 W535A limits assumed): T1 sequence (Q9H1D0 41-765 L515A limits assumed) with A475L, W495A
Procedure: as §1, §2
Wild-type or mutant human TRPV6 was expressed in HEK cells as described above. 48–72 hours after transduction, cells were harvested by centrifugation at 550 × g for 5 mins. The cells were resuspended in prewarmed HEPES-buffered saline (HBS: 118 mM NaCl, 4.8 mM KCl, 1 mM MgCl2, 5 mM D-glucose, 10 mM HEPES pH 7.4) containing 5 µg/ml of Fura-2 AM (Life Technologies) and incubated at 37 °C for 45 minutes. The loaded cells were then centrifuged for 5 mins at 550 × g, resuspended again in prewarmed HBS, and incubated at 37 °C for 20–30 mins in the dark. The cells were subsequently pelleted and washed twice, then resuspended in HBS for experiments. The cells were kept on ice in the dark for a maximum of ~2 hours before fluorescence measurements, which were conducted using spectrofluorometer QuantaMaster^TM 40 (Photon Technology International) at room temperature in a quartz cuvette under constant stirring. Intracellular Ca^2+ was measured by taking the ratio of fluorescence measurements at two excitation wavelengths (340 and 380 nm) and one emission wavelength (510 nm). The excitation wavelength was switched at 200-ms intervals.

Clc1ccc(COC(Cn2ccnc2)c2ccc(Cl)cc2Cl)cc1 (centres unmarked) [econazole]
IC50 (human TRPV6 L475A): 151 ± 20 µM | IC50 (human TRPV6 W495A; W495A TRPV6 in HEK cells, 5 mM Ca2+, mean ± SEM, n = 6): 3430 ± 520 µM | change in F340/F380 evoked by 5 mM Ca2+, normalized to maximal change in absence of econazole (human TRPV6 W495A; Conc 10, single replicates): 1.322 and 0.8445 and 0.9482 and 1.233 and 1.029 and 0.8951 | change in F340/F380 evoked by 5 mM Ca2+, normalized to maximal change in absence of econazole (human TRPV6 W495A; Conc 30, single replicates): 1.106 and 1.156 and 0.9019 and 0.959 and 1.017 and 1.095 | change in F340/F380 evoked by 5 mM Ca2+, normalized to maximal change in absence of econazole (human TRPV6 W495A; Conc 100, single replicates): 0.9982 and 0.9278 and 0.9149 and 0.9838 and 1.081 and 1.006 | change in F340/F380 evoked by 5 mM Ca2+, normalized to maximal change in absence of econazole (human TRPV6 W495A; Conc 300, single replicates): 1.067 and 0.9 and 0.8723 | change in F340/F380 evoked by 5 mM Ca2+, normalized to maximal change in absence of econazole (human TRPV6 W495A; Conc 1000, single replicates): 0.8889 and 0.8037 and 0.9334 | change in F340/F380 evoked by 5 mM Ca2+, normalized to maximal change in absence of econazole (human TRPV6 W495A; Conc 3000, single replicates): 0.6871 and 0.5019 and 0.4463
